Some test systems named below: HCC 2998; NCI-H226; SNB-19; OVCAR-5; NCI-H460; NCI/ADR-RES; CCRF-CEM; Malme-3M; MDA-MB-435; SK-MEL-28; SK-MEL-5; MDA-MB-231; MCF7; UO-31; A549; HT-29; HL-60; MOLT-4; TK-10; LOX IMVI.
Common to all, as to test: inhibition of tumour cell growth, NCI panel, 48 h

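Briefly, cells in 96-well plates were exposed to five compound concentrations for 48 h, and endpoints were estimated by linear interpolation. GI50 marks 50% less growth.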 Activity calls are given as the source filed them. No stated cut-off is given here; in the data, active = GI50 up to about 1.1 µM and inactive = higher.

On to `COc1ccc2c(c1)CCCc1c-2nc2ccccc2c1N`, for which the GI50 in the test with HCC 2998 was 1.87 µM (inactive); in the test with NCI-H226 it was 13.8 µM (inactive); in the test with SNB-19, 15.9 µM (inactive); in the test with OVCAR-5 it was 10.2 µM (inactive); in the test on NCI-H460 it was 4.44 µM (inactive); with NCI/ADR-RES, 12.9 µM (inactive). Besides, the GI50 with CCRF-CEM was 5.24 µM (inactive); in the test with Malme-3M it was 14.1 µM (inactive); with MDA-MB-435 it was 12 µM (inactive); with SK-MEL-28, 10.8 µM (inactive); with SK-MEL-5, 3.72 µM (inactive); in the test on MDA-MB-231, 5.7 µM (inactive). For the same compound, the GI50 in the test with MCF7 was 11.2 µM (inactive); in the test with UO-31, 5.35 µM (inactive); in the test with A549, 12.9 µM (inactive); in the test with HT-29, 3.3 µM (inactive); in the test on HL-60, 13.9 µM (inactive); with MOLT-4, 8.59 µM (inactive). Moreover, the results for the GI50 with TK-10 and with LOX IMVI were 10.7 µM (inactive) and 8.57 µM (inactive), respectively.
Consider `CCCCCCCCCCCCCCCCOCC(O)CO` (stereo not given), for which the GI50 in the test on HCC 2998 was 17.3 µM (inactive); in the test with NCI-H226, 18.7 µM (inactive); with SNB-19 it was 24 µM (inactive); in the test with OVCAR-5, 19.8 µM (inactive); in the test on NCI-H460, 19.9 µM (inactive); in the test with NCI/ADR-RES it was 16.7 µM (inactive). The GI50 in the test on CCRF-CEM was 11.1 µM (inactive); with Malme-3M, 19.2 µM (inactive); in the test with MDA-MB-435, 17.4 µM (inactive); in the test on SK-MEL-28, 18.6 µM (inactive); with SK-MEL-5 it was 27.5 µM (inactive); in the test on MDA-MB-231 it was 18.5 µM (inactive). Moreover, the GI50 with MCF7 was 22.2 µM (inactive); in the test with UO-31, 17.1 µM (inactive); in the test on A549 it was 20.1 µM (inactive); with HT-29, 17.3 µM (inactive); in the test on HL-60, 7.18 µM (inactive); with MOLT-4 it was 13.3 µM (inactive). Also, the GI50 with TK-10 is 15.2 µM (inactive); in the test on LOX IMVI it was 17.8 µM (inactive).
Consider `N=C(N)NS(=O)(=O)c1ccc(Nc2c3ccccc3nc3c(C(=O)NCCO)cccc23)cc1`, for which the GI50 is 0.19 µM (active) in the test on HCC 2998; 0.142 µM (active) in the test on NCI-H226; 0.221 µM (active) in the test on SNB-19; 0.244 µM (active) with OVCAR-5; 0.127 µM (active) in the test on NCI-H460; 0.296 µM (active) in the test on NCI/ADR-RES. In addition, the GI50 in the test on CCRF-CEM was 0.416 µM (active); with Malme-3M, 0.156 µM (active); in the test with MDA-MB-435, 0.173 µM (active); in the test on SK-MEL-28 it was 0.248 µM (active); in the test with SK-MEL-5, 0.142 µM (active); with MDA-MB-231, 0.207 µM (active). The GI50 in the test on MCF7 was 0.0282 µM (active); with UO-31 it was 0.175 µM (active); with A549 it was 0.157 µM (active); in the test on HT-29, 0.16 µM (active); with HL-60 it was 0.293 µM (active); in the test with MOLT-4 it was 0.0885 µM (active). In addition, the GI50 was 0.281 µM (active) in the test on TK-10 and 0.143 µM (active) in the test with LOX IMVI.
`C/C(CC1C2CCCC1C2)=N\NC(N)=O` (stereo not given): the GI50 in the test with HCC 2998, with NCI-H226, in the test on SNB-19, in the test with OVCAR-5, in the test on NCI-H460 and in the test on NCI/ADR-RES was > 100 µM (inactive) throughout. Further, the GI50 in the test on CCRF-CEM, in the test on Malme-3M, in the test on MDA-MB-435, with SK-MEL-28, in the test on SK-MEL-5 and in the test with MDA-MB-231 was > 100 µM (inactive) in each case. Further, the GI50 in the test with MCF7, in the test on UO-31, in the test on A549, in the test with HT-29, in the test on HL-60 and with MOLT-4 was > 100 µM (inactive) in each case. The GI50 with TK-10 and in the test on LOX IMVI was > 100 µM (inactive) throughout.
Regarding `Cc1cc(-n2c(/C=C/c3ccc(Cl)cc3)nc3cc(Cl)ccc3c2=O)on1`, the GI50 with HCC 2998 is > 50 µM (inactive); in the test with NCI-H226, 12.4 µM (inactive); in the test on SNB-19 it was 9.86 µM (inactive); with OVCAR-5, > 50 µM (inactive); in the test with NCI-H460, 5.12 µM (inactive); in the test with NCI/ADR-RES, 14.4 µM (inactive). In addition, the GI50 in the test on CCRF-CEM was > 50 µM (inactive); in the test with Malme-3M, 24 µM (inactive); in the test with MDA-MB-435, 14.2 µM (inactive); in the test on SK-MEL-28, > 50 µM (inactive); in the test with SK-MEL-5 it was 16.4 µM (inactive); with MDA-MB-231 it was 15.6 µM (inactive). Besides, the GI50 is 18.9 µM (inactive) in the test with MCF7; 3.61 µM (inactive) in the test with UO-31; 14.1 µM (inactive) with A549; > 50 µM (inactive) in the test with HT-29; > 50 µM (inactive) in the test on HL-60; > 50 µM (inactive) with MOLT-4. In addition, the GI50 in the test with TK-10 was 12.2 µM (inactive); in the test with LOX IMVI it was 15.1 µM (inactive).
For the compound `CC1(C)N=C(C2CCCN2C(=O)OCc2ccccc2)OC1=O` (stereo not given), the GI50 with HCC 2998, in the test with NCI-H226, in the test on SNB-19, in the test on OVCAR-5, in the test on NCI-H460 and with NCI/ADR-RES was > 100 µM (inactive) in each case. The GI50 with CCRF-CEM, with Malme-3M, in the test with MDA-MB-435, with SK-MEL-28, in the test on SK-MEL-5 and in the test with MDA-MB-231 was > 100 µM (inactive) throughout. Also, the GI50 in the test on MCF7, with UO-31, with A549, in the test with HT-29, in the test with HL-60 and in the test with MOLT-4 was > 100 µM (inactive) in each case. For the same compound, the GI50 with TK-10 and with LOX IMVI was > 100 µM (inactive) throughout.
`Cc1ccc2c(c1)/C(=N/Nc1ccccc1[N+](=O)[O-])C(=O)N2`: the GI50 in the test on HCC 2998 was > 100 µM (inactive); in the test with NCI-H226 it was 8.41 µM (inactive); with SNB-19, 37.2 µM (inactive); in the test with OVCAR-5, 10.9 µM (inactive); in the test on NCI-H460 it was 3.89 µM (inactive); with NCI/ADR-RES, 3.72 µM (inactive). The GI50 in the test with CCRF-CEM is 87.1 µM (inactive); with Malme-3M, 3.48 µM (inactive); with MDA-MB-435, > 100 µM (inactive); with SK-MEL-28 it was > 100 µM (inactive); with SK-MEL-5, 7.35 µM (inactive); in the test on MDA-MB-231 it was 1.61 µM (inactive). The GI50 in the test with MCF7 is 12 µM (inactive); in the test on UO-31, 2.05 µM (inactive); with A549, 27.9 µM (inactive); with HT-29, 31.6 µM (inactive); in the test on HL-60, > 100 µM (inactive); with MOLT-4, > 100 µM (inactive). Further, the GI50 is 3.24 µM (inactive) with TK-10 and 4.36 µM (inactive) with LOX IMVI.
On to `CCCCCCC/C=C1\CCC(CN(C)C)C1=O` (stereo not given), for which the GI50 with HCC 2998 is 17.7 µM (inactive); with NCI-H226, 22.4 µM (inactive); in the test with SNB-19, 16.9 µM (inactive); in the test with OVCAR-5, 19.8 µM (inactive); in the test with NCI-H460 it was 19.1 µM (inactive); in the test with NCI/ADR-RES, 2.61 µM (inactive). The GI50 in the test on CCRF-CEM is 3.03 µM (inactive); with Malme-3M it was 10.8 µM (inactive); with MDA-MB-435, 5.66 µM (inactive); with SK-MEL-28, 16.9 µM (inactive); in the test on SK-MEL-5, 18.7 µM (inactive); with MDA-MB-231, 3.2 µM (inactive). Also, the GI50 was 3.24 µM (inactive) in the test on MCF7; 15.6 µM (inactive) in the test with UO-31; 22.6 µM (inactive) in the test on A549; 14.6 µM (inactive) in the test with HT-29; 3.02 µM (inactive) in the test on HL-60; 2.47 µM (inactive) with MOLT-4. Moreover, the GI50 with TK-10 was 7.48 µM (inactive); with LOX IMVI it was 6.85 µM (inactive).
In the case of `CC1CCC2(CC1)NC1=C(CC(C)CC1)C1=C2CC(C)CC1` (stereo not given), the GI50 with HCC 2998 was 18.6 µM (inactive); in the test on NCI-H226 it was 16.7 µM (inactive); with SNB-19, 23.5 µM (inactive); in the test with OVCAR-5, 18.7 µM (inactive); with NCI-H460 it was 23.8 µM (inactive); in the test on NCI/ADR-RES it was > 10 µM (inactive). Moreover, the GI50 with CCRF-CEM is 18.1 µM (inactive); in the test with Malme-3M, 26.9 µM (inactive); in the test with MDA-MB-435 it was > 10 µM (inactive); in the test on SK-MEL-28, 17.7 µM (inactive); in the test with SK-MEL-5, 12.1 µM (inactive); in the test with MDA-MB-231 it was 20.5 µM (inactive). Also, the GI50 in the test on MCF7 was 17.6 µM (inactive); in the test with UO-31, 20.3 µM (inactive); in the test on A549 it was 36.8 µM (inactive); in the test with HT-29, 16.7 µM (inactive); with HL-60, 14.4 µM (inactive); in the test with MOLT-4, 7.14 µM (inactive). Moreover, the GI50 with TK-10 was 26.5 µM (inactive); with LOX IMVI it was 18.3 µM (inactive).
For `O=c1cccc2n1C[C@H]1CNC[C@H]2C1`, the GI50 with HCC 2998, in the test with NCI-H226, in the test with SNB-19, in the test on OVCAR-5, in the test on NCI-H460 and in the test with NCI/ADR-RES was > 100 µM (inactive) each time. Besides, the GI50 with CCRF-CEM, with Malme-3M, in the test on MDA-MB-435, in the test with SK-MEL-28, in the test on SK-MEL-5 and with MDA-MB-231 was > 100 µM (inactive) in each case. For the same compound, the GI50 with MCF7, in the test with UO-31, in the test on A549, in the test with HT-29, with HL-60 and in the test on MOLT-4 was > 100 µM (inactive) throughout. Besides, the GI50 with TK-10 and in the test with LOX IMVI was > 100 µM (inactive) each time.

Source of the values: ChEMBL document CHEMBL1201862, “PubChem BioAssay data set” (2004).
